Experimental data from patent US9738848B2, “Polyfunctional lubricant composition” (priority 2013, dated 2017).

Assays:
[1] = Hydrolyzability test (acid value after storage with water); assay type: physicochemical; conditions: 1 mass percent water, 60° C.
Protocol: 1 Mass percent of water was added to phosphorus compounds and the mixture was stored in a thermostat at 60° C. The compounds were evaluated for hydrolyzability by measuring an acid value at each number of days elapsed.

[2] = tested on: Larval medaka (Oryzias latipes); conditions: cited from earlier work
[3] = tested on: Rainbow trout; conditions: cited from earlier work

Compound | Hydrolyzability (acid value over days elapsed) [1] | Larval medaka (Oryzias latipes) acute toxicity 96h-LC50 [2] | Rainbow trout acute toxicity 96h-LC50 [3]
O=P(Oc1ccccc1)(Oc1ccccc1)Oc1ccccc1 [Triphenyl phosphate] | high hydrolyzability | 1.3 µg/mL | –
Tricresyl phosphate | – | 0.84 µg/mL | –
Triisopropyl phenyl phosphate | – | >100 µg/mL | 1.6 µg/mL
